Results on one compound are retold here after patent publication US20070031520A1, “Method of using ajoene as alcohol dehydrogenase inhibitor, composition for removing hangover comprising ajoene and method of preparing the same” (priority 2005, published 2007).

This experiment relates to human ADH. Nature of the experiment: cloned human ADH assay (NADH absorbance at 340 nm). The experiment is classed as biochemical. The settings on record: for ADH inhibitory activity (%): 0.1 M glycine buffer pH 10, 2.4 mM NAD+, 33 mM ethanol. On the procedure:
ADH inhibitory activity of ajoene obtained in Example 1 was examined by means of a cloned human ADH assay wherein human ADH is treated with ajoene at different concentrations, and the results are shown in Table 1 below. Here, the ADH assay employed 0.1 M glycine buffer (pH 10) as a reaction buffer and 2.4 mM NAD^+ and 33 mM ethanol in a subtrate. ADH inhibitory activity was determined by measuring the absorbance of NADH at 340 nm using a microplate reader.

Turning to `C=CCSSC=CC[S+]([O-])CC=C` (stereo not shown) [ajoene, 4,5,9-trithiadodeca-1,6,11-triene-9-oxide], the “ADH inhibitory activity (%)” value was determined as 0% (ajoene 0.1 μg/ml); 50% (ajoene 0.9 μg/ml); 60% (ajoene 1 μg/ml); 85% (ajoene 10 μg/ml); 100% (ajoene 50 μg/ml); 100% (ajoene 100 μg/ml). The “inhibitory concentration of 50% (IC50) on ADH activity” value (cloned human ADH, from Table 1) worked out at 0.9 µg/mL.
